7 molecules from ChEMBL document CHEMBL6120979, “Cell penetrable peptide nucleic acids targeting PDZK1IP1 with anti-inflammatory potential in human keratinocytes” (Bioorg Med Chem Lett, 2025) can be followed below.

The structures appear in SMILES notation. The source made the active and inactive calls. The calls are words filed in the database; no cut-off is given here.

Usually Tm stands for the temperature at which the thermal transition is half complete.

The test system of assay [1] is RNA. Nature of the assay: Binding affinity to complementary RNA (unknown origin) in sodium phosphate buffer assessed as melting temperature of PNA-RNA duplex. In kind it is nucleic-acid assay.
The test system of assay [2] is Keratinocyte. Nature of the assay: Inhibition of PDZK1IP1 mRNA expression in human keratinocytes incubated for 24 hrs by RT-qPCR analysis. Format: functional, cell-based. In general terms: In qPCR the cycle at which signal appears reflects the starting amount.
Assay [3] has as its system RNA. Nature of the assay: Binding affinity to complementary RNA (unknown origin) with mismatch bases in sodium phosphate buffer. Format: nucleic-acid assay.
The test system of assay [4] is Keratinocyte. Nature of the assay: Inhibition of PDZK1IP1 mRNA expression in human keratinocytes at 1 uM incubated for 24 hrs by RT-qPCR analysis. In kind it is functional, cell-based.
Assay [5] deals with Keratinocyte. The experiment in a line: Antiinflammatory activity in human keratinocytes assessed as downregulation of PDZK1IP1 gene expression at 1 uM preincubated with compound for 24 hrs followed by IFN-gamma addition and measured after 24 hrs by RT-qPCR analysis. In kind it is functional, cell-based. To be noted: time 48.0 hrs.
Assay [6] relates to Keratinocyte. The experiment in a line: Antiinflammatory activity in human keratinocytes assessed as downregulation of IL6 gene expression at 1 uM preincubated with compound for 24 hrs followed by IFN-gamma addition and measured after 24 hrs by RT-qPCR analysis. Format: functional, cell-based. To be noted: time 48.0 hrs.
Assay [7] concerns Keratinocyte. The experiment in a line: Antiinflammatory activity in human keratinocytes assessed as downregulation of PTGS2 gene expression at 1 uM preincubated with compound for 24 hrs followed by IFN-gamma addition and measured after 24 hrs by RT-qPCR analysis. In kind it is functional, cell-based. To be noted: time 48.0 hrs.
The subject of assay [8] is Keratinocyte. Nature of the assay: Inhibition of PDZK1IP1 mRNA expression in human keratinocytes at 0.01 to 1 uM incubated for 24 hrs by RT-qPCR analysis. In kind it is functional, cell-based. The conditions noted are these: dose 0.01-1 µM.
Assay [9] deals with Keratinocyte. Nature of the assay: Antiinflammatory activity in human keratinocytes assessed as downregulation of PTGS2 gene expression preincubated with compound for 24 hrs followed by IFN-gamma addition and measured after 24 hrs by RT-qPCR analysis. Format: functional, cell-based. The conditions noted are these: dose 0.01-1 µM, time 48.0 hrs.
Assay [10] deals with Keratinocyte. Nature of the assay: Antiinflammatory activity in human keratinocytes assessed as downregulation of IL6 gene expression preincubated with compound for 24 hrs followed by IFN-gamma addition and measured after 24 hrs by RT-qPCR analysis. In kind it is functional, cell-based. The conditions noted are these: dose 0.01-1 µM, time 48.0 hrs.
The test system of assay [11] is Keratinocyte. The experiment in a line: Antiinflammatory activity in human keratinocytes assessed as downregulation of PDZK1IP1 gene expression preincubated with compound for 24 hrs followed by IFN-gamma addition and measured after 24 hrs by RT-qPCR analysis. To be noted: dose 0.01-1 µM, time 48.0 hrs. Format: functional, cell-based.

On to `Cc1cn(CC(=O)N(CCN)CC(=O)NCCN(CC(=O)NCCN(CC(=O)NCCN(CC(=O)NCCN(CC(=O)NCCN(CC(=O)NCCN(CC(=O)NCCN(CC(=O)NCCN(CC(=O)NCCN(CC(=O)NCCN(CC(=O)NCCN(CC(=O)NCCN(CC(=O)NCCN(CC(=O)NCCN(CC(=O)NCCN(CC(=O)NCCN(CC(=O)NCCN(CC(=O)NCCN(CC(=O)NCCN(CC(=O)O)C(=O)Cn2cnc3c(=O)[nH]c(NCCCCCCN)nc32)C(=O)Cn2ccc3c(=O)[nH]c(N)nc32)C(=O)Cn2cnc3c(=O)[nH]c(N)nc32)C(=O)Cn2cnc3c(=O)[nH]c(NCCCCCCN)nc32)C(=O)Cn2cc(C)c(=O)[nH]c2=O)C(=O)Cn2ccc(N)nc2=O)C(=O)Cn2ccc(N)nc2=O)C(=O)Cn2ccc(N)nc2=O)C(=O)Cn2cc(C)c(=O)[nH]c2=O)C(=O)Cn2cc3cc(COCCN)[nH]c3nc2=O)C(=O)Cn2cnc3c(=O)[nH]c(N)nc32)C(=O)Cn2cnc3c(=O)[nH]c(N)nc32)C(=O)Cn2cnc3c(N)nc(NCCCCCN)nc32)C(=O)Cn2ccc(N)nc2=O)C(=O)Cn2cnc3c(=O)[nH]c(N)nc32)C(=O)Cn2cc(C)c(=O)[nH]c2=O)C(=O)Cn2cnc3c(=O)[nH]c(N)nc32)C(=O)Cn2cc(C)c(=O)[nH]c2=O)C(=O)Cn2cnc3c(=O)[nH]c(N)nc32)c(=O)[nH]c1=O`, for which, in the assay on RNA [1], the Tm is > 90 °C. Also, in the assay on Keratinocyte [2], the inhibition result is “Dose-dependent-effect”. Further, the result in the assay on RNA [3] was inactive.
Take `Cc1cn(CC(=O)N(CCN)CC(=O)NCCN(CC(=O)NCCN(CC(=O)NCCN(CC(=O)NCCN(CC(=O)NCCN(CC(=O)NCCN(CC(=O)NCCN(CC(=O)NCCN(CC(=O)NCCN(CC(=O)NCCN(CC(=O)NCCN(CC(=O)NCCN(CC(=O)NCCN(CC(=O)NCCN(CC(=O)NCCN(CC(=O)NCCN(CC(=O)NCCN(CC(=O)NCCN(CC(=O)NCCN(CC(N)=O)C(=O)Cn2cnc3c(=O)[nH]c(N)nc32)C(=O)Cn2ccc(N)nc2=O)C(=O)Cn2cnc3c(N)nc(NCCCCCN)nc32)C(=O)Cn2cc(C)c(=O)[nH]c2=O)C(=O)Cn2ccc(N)nc2=O)C(=O)Cn2cnc3c(N)ncnc32)C(=O)Cn2cnc3c(=O)[nH]c(N)nc32)C(=O)Cn2cnc3c(N)ncnc32)C(=O)Cn2ccc(N)nc2=O)C(=O)Cn2cnc3c(N)nc(N)nc32)C(=O)Cn2cnc3c(N)nc(NCCCCCN)nc32)C(=O)Cn2ccc(N)nc2=O)C(=O)Cn2cc(C)c(=O)[nH]c2=O)C(=O)Cn2cc(C)c(=O)[nH]c2=O)C(=O)Cn2ccc(N)nc2=O)C(=O)Cn2cnc3c(N)nc(NCCCCCN)nc32)C(=O)Cn2ccc(N)nc2=O)C(=O)Cn2cc(C)c(=O)[nH]c2=O)C(=O)Cn2cc3cc(COCCN)[nH]c3nc2=O)c(=O)[nH]c1=O`: the inhibition entry in the assay on Keratinocyte [4] was “inactive”. Further, the result in the assay on Keratinocyte [5], with Keratinocyte [6] and with Keratinocyte [7] was inactive.
Regarding `Cc1cn(CC(=O)N(CCNC(=O)CN(CCNC(=O)CN(CCNC(=O)CN(CCNC(=O)CN(CCNC(=O)CN(CCNC(=O)CN(CCNC(=O)CN(CCNC(=O)CN(CCNC(=O)CN(CCNC(=O)CN(CCNC(=O)CN(CCNC(=O)CN(CCN)C(=O)Cn2cnc3c(N)nc(NCCCCCN)nc32)C(=O)Cn2ccc(N)nc2=O)C(=O)Cn2cc(C)c(=O)[nH]c2=O)C(=O)Cn2ccc(N)nc2=O)C(=O)Cn2cnc3c(N)nc(NCCCCCN)nc32)C(=O)Cn2ccc(N)nc2=O)C(=O)Cn2cnc3c(=O)[nH]c(NCCCCCCN)nc32)C(=O)Cn2cnc3c(=O)[nH]c(N)nc32)C(=O)Cn2cc3cc(COCCN)[nH]c3nc2=O)C(=O)Cn2cc(C)c(=O)[nH]c2=O)C(=O)Cn2ccc(N)nc2=O)C(=O)Cn2cc3cc(COCCN)[nH]c3nc2=O)CC(=O)NCCN(CC(=O)O)C(=O)Cn2ccc(N)nc2=O)c(=O)[nH]c1=O`, the Tm in the assay on RNA [1] is 74.1 °C. Also, the result in the assay with RNA [3] was inactive. In addition, the inhibition result in the assay with Keratinocyte [4] is “Active”. Further, the inhibition entry in the assay on Keratinocyte [8] is “Mild_effect; Mild Dose Dependent Effect Observed”.
For `Cc1cn(CC(=O)N(CCNC(=O)CN(CCNC(=O)CN(CCNC(=O)CN(CCNC(=O)CN(CCNC(=O)CN(CCNC(=O)CN(CCN)C(=O)Cn2cnc3c(=O)[nH]c(N)nc32)C(=O)Cn2cnc3c(=O)[nH]c(NCCCCCCN)nc32)C(=O)Cn2ccc(N)nc2=O)C(=O)Cn2cc(C)c(=O)[nH]c2=O)C(=O)Cn2cc3cc(COCCN)[nH]c3nc2=O)C(=O)Cn2ccc(N)nc2=O)CC(=O)NCCN(CC(=O)NCCN(CC(=O)NCCN(CC(=O)NCCN(CC(=O)NCCN(CC(=O)NCCN(CC(=O)NCCN(CC(=O)O)C(=O)Cn2cnc3c(N)nc(NCCCCCN)nc32)C(=O)Cn2ccc(N)nc2=O)C(=O)Cn2cnc3c(=O)[nH]c(N)nc32)C(=O)Cn2cnc3c(=O)[nH]c(NCCCCCCN)nc32)C(=O)Cn2cc(C)c(=O)[nH]c2=O)C(=O)Cn2cc3cc(COCCN)[nH]c3nc2=O)C(=O)Cn2ccc(N)nc2=O)c(=O)[nH]c1=O` the same measures were 84 °C, “inactive”, “Active” and “Mild_effect; Mild Dose Dependent Effect Observed”.
For the molecule `Cc1cn(CC(=O)N(CCNC(=O)CN(CCNC(=O)CN(CCNC(=O)CN(CCNC(=O)CN(CCNC(=O)CN(CCNC(=O)CN(CCNC(=O)CN(CCNC(=O)CN(CCN)C(=O)Cn2cnc3c(N)nc(NCCCCCN)nc32)C(=O)Cn2ccc(N)nc2=O)C(=O)Cn2cnc3c(=O)[nH]c(N)nc32)C(=O)Cn2cnc3c(=O)[nH]c(N)nc32)C(=O)Cn2ccc(N)nc2=O)C(=O)Cn2cc(C)c(=O)[nH]c2=O)C(=O)Cn2cc3cc(COCCN)[nH]c3nc2=O)C(=O)Cn2ccc(N)nc2=O)CC(=O)NCCN(CC(=O)NCCN(CC(=O)NCCN(CC(=O)NCCN(CC(=O)NCCN(CC(=O)NCCN(CC(=O)NCCN(CC(=O)NCCN(CC(=O)NCCN(CC(=O)NCCN(CC(=O)NCCN(CC(=O)O)C(=O)Cn2cnc3c(=O)[nH]c(N)nc32)C(=O)Cn2cnc3c(N)nc(NCCCCCN)nc32)C(=O)Cn2ccc(N)nc2=O)C(=O)Cn2ccc(N)nc2=O)C(=O)Cn2cnc3c(N)nc(NCCCCCN)nc32)C(=O)Cn2ccc(N)nc2=O)C(=O)Cn2cnc3c(=O)[nH]c(N)nc32)C(=O)Cn2cnc3c(=O)[nH]c(NCCCCCCN)nc32)C(=O)Cn2cc(C)c(=O)[nH]c2=O)C(=O)Cn2ccc(N)nc2=O)C(=O)Cn2ccc(N)nc2=O)c(=O)[nH]c1=O`, the midpoint of thermal melting (Tm) in the assay on RNA [1] was > 90 °C. Moreover, the inhibition result in the assay with Keratinocyte [2] is “Dose-dependent-effect”. Further, in the assay on RNA [3], the outcome was inactive.
As to `Cc1cn(CC(=O)N(CCNC(=O)CN(CCNC(=O)CN(CCNC(=O)CN(CCNC(=O)CN(CCNC(=O)CN(CCNC(=O)CN(CCNC(=O)CN(CCNC(=O)CN(CCNC(=O)CN(CCNC(=O)CN(CCNC(=O)CN(CCNC(=O)CN(CCNC(=O)CN(CCN)C(=O)Cn2cc(C)c(=O)[nH]c2=O)C(=O)Cn2cnc3c(=O)[nH]c(NCCCCCCN)nc32)C(=O)Cn2cc(C)c(=O)[nH]c2=O)C(=O)Cn2cnc3c(=O)[nH]c(NCCCCCCN)nc32)C(=O)Cn2ccc(N)nc2=O)C(=O)Cn2cnc3c(N)nc(NCCCCCN)nc32)C(=O)Cn2cnc3c(=O)[nH]c(N)nc32)C(=O)Cn2cnc3c(=O)[nH]c(NCCCCCCN)nc32)C(=O)Cn2ccc(N)nc2=O)C(=O)Cn2cc(C)c(=O)[nH]c2=O)C(=O)Cn2ccc(N)nc2=O)C(=O)Cn2cc3cc(COCCN)[nH]c3nc2=O)C(=O)Cn2ccc(N)nc2=O)CC(=O)O)c(=O)[nH]c1=O`, the midpoint of thermal melting (Tm) with RNA [1] was determined as 75 °C. The result with RNA [3] was inactive. For the same molecule, the inhibition entry in the assay with Keratinocyte [4] is “Active”. Also, the inhibition result in the assay on Keratinocyte [8] is “Mild_effect; Mild Dose Dependent Effect Observed”.
For the molecule `Cc1cn(CC(=O)N(CCN)CC(=O)NCCN(CC(=O)NCCN(CC(=O)NCCN(CC(=O)NCCN(CC(=O)NCCN(CC(=O)NCCN(CC(=O)NCCN(CC(=O)NCCN(CC(=O)NCCN(CC(=O)NCCN(CC(=O)NCCN(CC(=O)NCCN(CC(=O)NCCN(CC(=O)O)C(=O)Cn2cnc3c(=O)[nH]c(N)nc32)C(=O)Cn2cnc3c(=O)[nH]c(NCCCCCCN)nc32)C(=O)Cn2cc(C)c(=O)[nH]c2=O)C(=O)Cn2ccc(N)nc2=O)C(=O)Cn2ccc(N)nc2=O)C(=O)Cn2cc3cc(COCCN)[nH]c3nc2=O)C(=O)Cn2cc(C)c(=O)[nH]c2=O)C(=O)Cn2ccc(N)nc2=O)C(=O)Cn2cnc3c(=O)[nH]c(NCCCCCCN)nc32)C(=O)Cn2cnc3c(=O)[nH]c(N)nc32)C(=O)Cn2cnc3c(N)nc(NCCCCCN)nc32)C(=O)Cn2ccc(N)nc2=O)C(=O)Cn2cnc3c(=O)[nH]c(NCCCCCCN)nc32)c(=O)[nH]c1=O`, the Activity entry in the assay on Keratinocyte [9], in the assay with Keratinocyte [10] and with Keratinocyte [11] was “Dose-dependent-effect” each time. Further, in the assay with RNA [1], the Tm stood at 80 °C. Moreover, the inhibition entry in the assay with Keratinocyte [2] is “Dose-dependent-effect”. Moreover, the outcome with RNA [3] was inactive. Besides, the inhibition entry in the assay on Keratinocyte [4] is “Active”.
